How the values were obtained:
Raji cells = assay: Annexin V-FITC/PI apoptosis assay (FACS); type: cell-based, human; conditions: 72 h
Text: Figure 3 PI3Kδ inhibition led to blockade of B cell leukemia cells proliferation via induction of cell cycle arrest and apoptosis Raji cells treated with X-370 for indicated times and at serial diluted concentrations were subjected to Annexin V-FITC/PI staining (A) and PI staining (B) and FACS analysis to show cell apoptosis and cell cycle distribution respectively. (C) X-370 inhibited proliferation of human leukemia primary cells. Freshly isolated human primary mononuclear cells from bone marrow samples of patients were treated with X-370 for 72 h and cell viability was assayed using CCK-8 assay. IC50s of each sample were plotted where 10 μM was assigned to specimens with IC50 >10 μM. Each symbol represents an individual patient sample. […]
Apoptosis was measured with annexin V–fluorescein isothiocyanate (FITC) /Propidium iodide (PI) kit (KeyGEN Biotech, Nanjing, China) as previously described. Fluorescence was acquired with a FACSCalibur instrument (BD Biosciences, CA) and analyzed using BD CellQuest Pro software.

Raji MEK DD cells = assay: Erk1/2 phosphorylation in Raji cells expressing MEK DD (Western blot); type: cell-based, human; conditions: 1 h
Procedure: Figure 5 Inhibition of Erk1/2 phosphorylation by X-370 contributed to its antiproliferative activity (A-C) X-370 inhibited Erk1/2 phosphorylation via PI3K-PDK1-MEK1/2 cascade but not the PI3K-Gab1 positive feedback loop. (A) Raji and SU-DHL-6 cells were exposed to 1 μM X370 for 3 h and protein fraction from cellular membrane was separated using Native Membrane Protein Extraction Kit and probed. WCL: whole cell lysate. (B) Inhibition of PDK1 or MEK1/2 abrogated Erk1/2 phosphorylation. Cells were treated with pharmacological inhibitors of Raf (AZ 628, PLX4032), MEK1/2 (AZD6244), p90RSK (BI-D1870), PI3Kδ (X-370), PDK1 (BX-912), Akt (MK-2206), mTOR (AZD8055) or mTORC1 (Rapamycin) respectively and indicated proteins were detected. (C) X-370 disrupted the association between PDK1 and MEK1/2. Raji cells were treated with 1 μM X370 for 1 h and cell lysates were immunoprecipitated with anti-PDK1 antibody and indicated proteins were detected. WCL: whole cell lysate. […] (E) Raji and Raji MEK DD cells were treated with X-370 for 72 h and cell proliferation was detected by CCK-8 assay. (F) Raji MEK DD cells were treated with X-370 and AZD6244 and cell proliferation was detected by CCK-8 assay. Data were show as mean ± SD of three independent experiments. *: p < 0.05 determined by t-tests at each data point. […]

Structure (SMILES): O=C(N1CCCC1)N1CCC(n2cnc3c(-n4c(C(F)F)nc5ccccc54)nc(N4CCOCC4)nc32)CC1 [X-370]
- cells that underwent apoptosis (Raji cells; 10 μM): about 28%
- concentration at which apoptotic cells were detectable (Raji cells): ≥ 5 µM
- Erk1/2 phosphorylation (Raji MEK DD cells): failed to inhibit

— PMC4279406, “Simultaneous targeting of PI3Kδ and a PI3Kδ-dependent MEK1/2-Erk1/2 pathway for therapy in pediatric B-cell acute lymphoblastic leukemia” (Oncotarget, 2014)
